Patent US6868343B1, “Interactions between substances and surfaces that are made up of amphiphilic molecules” (NIMBUS Biotechnologie GmbH, priority 1998, dated 2005)

Experiments:
[1] = Membrane-water distribution by HPLC on solid-supported egg lecithin bilayer (column A1); format: physicochemical; details: column A1, pH 7.4, 23° C., calculated from retention time via calibration curve; read-out: logDcal-PC, pH 7.4
Excerpt: A natural mixture of egg lecithin and 0.03 mole % fluorescence marker 1-hexadecanoyl-2-(1-pyrenedecanoyl)-sn-glycero-3-phosphocholine is suspended in chloroform and the solvent completely removed in vacuo. The lipids are subsequently dispersed in the aqueous buffer (pH 7.4) and small, unilamellar vesicles are produced by ultrasonic treatment. By mixing with spherical, porous silicate structures (silicate gel with 10 μm sphere diameter and 400 nm pore size) at temperatures higher than the Tm of the lipids, the corresponding solid-supported lipid bilayer is obtained by the spontaneous fusion of the vesicles on the silicate surface. […]
For determining the dead time t0 in the selected system, 5 μl of a 5 mM potassium iodide solution is injected into buffer A. In the case of the HPLC column A1 in reproducible manner a t0 of 0.64 min is measured and for column A2 t0=0.58 min. […]
The quantities of compound to be injected are determined on the one hand by its adsorption tendency on the stationary phase and on the other by the detectability of the compound. As a rule most reference compounds can be detected using spectroscopic methods (here UV/V is spectroscopy at 210 nm). The measured retention times tR are directly correlated with the octanol/water partition coefficient using a prior art equation system. […]
In the present example logD cal-PC, pH 7.4 is determined.

[2] = Partition coefficient between solid-supported membrane C (DEPC) and aqueous compartment, UV/Vis at 304 nm; format: physicochemical; details: pH 7.4, tetracaine 25 μm, buffer A
Excerpt: The process for determining lipid binding constants with the aid of solid, biocompatible surfaces can also be used for pharmaceuticals. […] For an analyzing the partition coefficient of this pharmaceutical between the lipid and water phases, as described in example 1, porous silicate structures are coated with a charge-neutral membrane of 99.97 mole % zwitterionic lecithin 1,2-dielaidoyl-sn-3-glycero-3-phosphocholine (DEPC) and 0.03 mole % fluorescence marker 1-hexadecanoyl-2-(-pyrenedecanoyl)-sn-glycero-3-phosphocholine (hereinafter called membrane C).
The active agent tetracaine to be analyzed is placed in double sample form in aqueous solution (buffer A) in a constant concentration of 25 μm and mixed with different quantities of membrane C (concentration range of the lipid 5*10^−5−2*10^−3 mole/l). […] The free active agent concentration in the supernatant material can be rapidly determined in the case of the UV-active compound tetracaine with the aid of UV/Vis spectroscopy (detection at 304 nm). Alternatively the remaining lipid-free supernatant materials can be analyzed using chromatographic methods (HPLC, gas chromatography, etc.). […]
The partition coefficient found for tetracaine between the solid-supported membrane C and the aqueous compartment at the physiologically relevant pH-value 7.4 is 1.4. The binding constants are calculated according to standard procedures.

partition coefficient between solid-supported membrane C and aqueous compartment [2]	Structure (SMILES)	chromatographic logD [1]
–	CC(=O)CC(c1ccccc1)c1c(O)c2ccccc2oc1=O (centres unmarked) [Warfarin, 3-(-acetonylbenzyl)-4-hydroxycoumarin]	1.1
1.4	CCCCNc1ccc(C(=O)OCCN(C)C)cc1 [tetracaine]	–
